We go through one compound from ChEMBL document CHEMBL1221220, “Transport and signaling via the amino acid binding site of the yeast Gap1 amino acid transceptor” (Nat Chem Biol, 2009).

Changes are numbered by the printed parent chain. Active and inactive are the calls of the source. The rule behind the calls is not given here.

The test system of test [1] is T1, General amino-acid permease GAP1 (Saccharomyces cerevisiae), P19145 [T400C].
T1 sequence (whole entry): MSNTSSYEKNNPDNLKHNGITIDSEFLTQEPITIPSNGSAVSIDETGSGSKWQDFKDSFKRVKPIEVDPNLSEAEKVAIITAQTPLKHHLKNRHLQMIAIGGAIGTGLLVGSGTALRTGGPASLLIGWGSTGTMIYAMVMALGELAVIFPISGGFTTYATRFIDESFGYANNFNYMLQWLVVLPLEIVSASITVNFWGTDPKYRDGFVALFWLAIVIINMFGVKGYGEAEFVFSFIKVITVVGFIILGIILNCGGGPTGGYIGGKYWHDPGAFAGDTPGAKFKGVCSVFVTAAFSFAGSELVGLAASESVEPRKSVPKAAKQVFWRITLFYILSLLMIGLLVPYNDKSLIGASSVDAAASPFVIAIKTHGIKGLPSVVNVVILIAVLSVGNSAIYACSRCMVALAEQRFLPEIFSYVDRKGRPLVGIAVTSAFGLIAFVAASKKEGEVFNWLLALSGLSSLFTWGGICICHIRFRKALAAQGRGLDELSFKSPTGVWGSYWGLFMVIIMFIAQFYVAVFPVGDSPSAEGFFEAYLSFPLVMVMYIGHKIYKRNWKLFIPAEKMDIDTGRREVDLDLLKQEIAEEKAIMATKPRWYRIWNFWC
Description: Activation of yeast Gap1 T400C mutant-mediated amino acid uptake at 10 mM.

Test [2] has as its system T2, General amino-acid permease GAP1 (Saccharomyces cerevisiae), P19145 [I384C].
T2 sequence (whole entry): T1 sequence (whole entry) with I384C, C400T
Briefly: Induction of yeast Gap1 I384C mutant-mediated trehalose activation at 2 mM in presence of 10 mM MTSEA treated before compound addition.

Test [3] has as its system T3, General amino-acid permease GAP1 (Saccharomyces cerevisiae), P19145 [G390C].
T3 sequence (whole entry): T1 sequence (whole entry) with G390C, C400T
Description: Activation of yeast Gap1 G390C mutant-mediated amino acid uptake at 10 mM.

Test [4] has as its system T4, General amino-acid permease GAP1 (Saccharomyces cerevisiae), P19145 [A396C].
T4 sequence (whole entry): T1 sequence (whole entry) with A396C, C400T
Briefly: Induction of yeast Gap1 A396C mutant-mediated […] activation at 2 mM in presence of 10 mM MTSEA treated before compound addition.

Regarding `NC(=O)NCCC[C@H](N)C(=O)O`, the result in test [1] and in test [3] was inactive. Also, the inhibition result in test [2] and in test [4] was “Active” each time.
